Key:
[1] = Stability of ARI-001 stored at 50° C., purity by LC-MS; format: physicochemical
Experimental: ARI-001 was synthesized as described above. Purity was determined independently before use in experiments by examination via liquid chromatography-mass spectroscopy (LC-MS). A sample of material was dissolved in water/acetonitrile and injected onto a Discovery C-18 reverse phase column. The mobile phase began as 2%:98% acetonitrile:water, which was held for three minutes, after which a linear gradient was started that ran over 6 minutes, increasing the percent of acetonitrile until a final ratio of 98%:2% acetonitrile:water was reached. This final ratio was held for 3 minutes. The major peak was identified as ARI-001.
Stability was determined by storing ARI-001 under 50° C. with no specified humidity requirement. At various time points over the course of 3 months (90 days), a small sample (<5 mg) of ARI-001 was collected for analysis using LC-MS under the same conditions as used for purity determination (vide supra).

[2] = Pharmacokinetics of multiple administrations of ARI-001 to fasted monkeys; format: in vivo, Macaque monkeys; settings: 288 mg/kg oral gavage once per day, seven days
Experimental: ARI-001 was administered to monkeys via oral gavage once per day for a total of seven days. Blood samples were collected after the first and after the last administrations to measure plasma concentrations of ARI-001.

[3] = Multiple administration pharmacokinetic study of ARI-001 in wild type mice; format: in vivo, C57BL/6 mice; settings: 996, 1493, 2240, 3360 mg/kg oral gavage daily, 30 days
Experimental: Wild type C57BL/6 mice were dosed with ARI-001 in solution via oral gavage daily for 30 consecutive days. Over the course of five 24-hour periods, blood was collected, and the resultant plasma was analyzed for concentrations of ARI-001. Four doses were used: 996 mg/kg, 1493 mg/kg, 2240 mg/kg, and 3360 mg/kg. […] However, these values were time-independent, as there was no trend observed between these parameters and days of administration. See FIGS. 15A-15D and FIGS. 16A-16B.

[4] = Single-dose pharmacokinetic study of ARI-001 in wild type mice (PO, IP); format: in vivo, C57BL/6 mice; settings: oral gavage or intraperitoneal injection
Experimental: Plasma from the 19 hamsters dosed with ARI-001 in the above described 18-day study was analyzed for concentrations of ARI-001. Concentrations were determined for these samples, which were collected 24 hours after the final dose was administered. Briefly, plasma drug concentrations for the non-GLP pharmacokinetic experiments were determined by LC-MS using an Applied Biosystems 4000Qtrap spectrometer with electrospray ionization. Samples were prepared for analysis by precipitation of plasma proteins with cold methanol. HPLC of the samples was done with an Agilent Eclipse C18 column and a methanol/water gradient containing 0.1% formic acid and 5 mM ammonium acetate. ARI-001 was detected using multiple reaction monitoring (MRM) in the positive ion mode. For quantitation, a standard curve was measured by addition of known amounts of ARI-001 to plasma from untreated animals and preparing in a manner identical to the samples from treated animals. […] Pearson r values were determined using all data points, as was the two-tailed P-value for the data set.
Wild type C57BL/6 mice were dosed with a single administration of ARI-001 in solution either via oral gavage (PO) or via intraperitoneal injection (IP). Blood samples were then collected at various time points over a 24-hour period; plasma was then analyzed for concentrations of ARI-001 as described earlier. […]

high fat-fed hamsters [5] = assay: Plasma glucose in high fat-fed hamsters dosed 18 days; format: in vivo, Golden Syrian hamster; settings: ARI-001 1120 and 2240 mg/kg
Experimental: These animals were dosed for 18 consecutive days, while being on a HF/HS diet for a total of nearly 5 weeks. We also examined the glucose levels in the plasma of these animals. For pharmacokinetic studies, we utilized wild type mice for both single and repeated administration study. Finally, pharmacokinetic studies were corroborated by data from single and repeated administration to monkeys.

[6] = ARI-001 concentrations in liver and adipose tissue vs plasma; format: in vivo, Golden Syrian hamster; settings: HF/HS hamsters dosed 18 days; p<0.01
Experimental: Tissue samples were harvested from hamsters in the above-described 18-day experiment to determine the concentrations of ARI-001 in both liver and adipose tissue. Briefly, liver and adipose samples were harvested at the termination of the experiment; the samples were flash frozen in liquid nitrogen and then stored at −80° C. until used for analysis. To prepare for analysis, a sample of liver was excised from the frozen mass, weighed, and homogenized with a tissue grinder followed by sonication in buffer. The solid materials were then removed by centrifugation. To prepare for LC-MS analysis, the homogenate was then treated to the same preparation technique described for plasma preparation (vide supra). A sample of adipose was excised from the frozen mass, and transferred to a mortar and pestle cooled with liquid nitrogen. During grinding, liquid nitrogen was added to ensure the sample of adipose remained solid. The ground sample was transferred to a tared tube to weigh total sample. This ground sample was extracted with methanol, and this compound-containing methanol was separated from lipid by cooling to −20° C. […]
FIG. 8 graphs the correlation between concentrations of ARI-001 in plasma versus liver (left), and in plasma versus adipose (right). […] Pearson r was determined using all data points illustrated. P-value was determined for a 2-tailed t-test using all data points illustrated.

[7] = Once daily vs twice daily dosing of ARI-001, plasma lipids in animal models; format: in vivo; settings: ARI-001 given once daily
high fat-fed hamsters [8] = assay: Liver function tests (AST, ALT) in plasma of high fat-fed hamsters dosed 18 days; format: in vivo, Golden Syrian hamster
Experimental: These animals were dosed for 18 consecutive days, while being on a HF/HS diet for a total of nearly 5 weeks. We also examined the glucose levels in the plasma of these animals. For pharmacokinetic studies, we utilized wild type mice for both single and repeated administration study. Finally, pharmacokinetic studies were corroborated by data from single and repeated administration to monkeys. […] AST and ALT were measured using commercially available kits (Bio-Quant Diagnostic Kits, San Diego, Calif.). As expected, AST and ALT values from untreated hamsters (vehicle group) were very high, as the high fat diet leads to hepatomegaly and fatty liver. This disease state is reflected in the elevated AST and ALT levels.

[9] = niacin 1500 mg (roughly equimolar dose); niacin was no arm of the trial; cited from earlier work

Row | SMILES | purity of ARI-001 on storage ([1]; after 90 days) [%] | purity of ARI-001 on storage ([1]; unregulated humidity, 65 days) [%] | Cmax value day 7 versus day 1 [2] | concentrations 24 hours after the first or the last doses [2] | plasma concentrations on day 1 versus day 7 [2] | Cmax levels and total 24-hour exposure (AUC) vs days of administration [3] | Cmax levels and total 24-hour exposure (AUC) vs dose [3] | remaining plasma concentration of ARI-001 at the 24 hour timepoint [4] | glucose levels in comparison to the vehicle cohort (high fat-fed hamsters [5]) | correlation between concentrations of ARI-001 in plasma versus adipose [6] | correlation between concentrations of ARI-001 in plasma versus liver [6] | changes in plasma lipids, once daily vs same total dose twice daily [7] | AST in plasma vs vehicle (high fat-fed hamsters [8]; ARI-001 2240 mg/kg) | ALT in plasma vs vehicle (high fat-fed hamsters [8]; ARI-001 1120 and 2240 mg/kg, dose-dependent) | Cmax [9]
1 | O=C(O)c1ccc(CCN2CCOCC2)nc1 [ARI-001] | 95.9 | 98.9 | higher on day 7 than on day 1 | essentially identical | very little difference | time-independent | dose-dependent | undetectable | neither dose of ARI-001 produced any significant change | highly statistically significant | highly statistically significant | greater than or equal to the lipid altering effects observed with the same total dose of ARI-001 given twice daily | drastically reduced | similarly reduced | –
2 | O=C(O)c1cccnc1 [Niacin, nicotinic acid] | – | – | – | – | – | – | – | – | – | – | – | – | – | – | about 30,000 ng/mL

Source: US9212142B2 (Trustees of Tufts College, priority 2010, dated 2015)
